In publication PMC9952648, “Structural Features Governing the Metabolic Stability of Tetraethyl-Substituted Nitroxides in Rat Liver Microsomes” (Antioxidants, 2023):
Like-named read-outs stand apart in the source and are kept apart here. Marks after values point to notes of the source that are not given here.

Experiments:
liver homogenates = system: liver homogenates; parameters: method as in PMID 34641310; details: ref 29; cited from earlier work
[1] = Reduction of nitroxides by excess ascorbate monitored by stopped-flow EPR; assay type: physicochemical; details: potassium phosphate buffer 0.1 M, pH 7.4, equilibrated with air, 21 °C; This work
Source text: A 4-bore AquaX quartz cell (Bruker) inserted into the cavity was connected to a Bio-Logic MPS-51 stop-flow apparatus with three syringes (Bio-Logic, Claix, France) controlled by the Bio-Logic MPS software. […] The initial second-order reaction rate constant of the reaction of nitroxides with ascorbate, k0 values was derived from experimental results as previously described.

[2] = system: rat liver microsomes (RLM); experiment: Aerobic incubation of nitroxides with rat liver microsomes and NADPH monitored by EPR; details: for Nitroxide recovered upon reoxidation with potassium ferricyanide: ferricyanide 1 mM added to whole system after 30 min incubation; for Initial rate of decrease, + Clo / Initial rate of decrease, + Clo (per P450): whole system + clotrimazole 25 μM; for Initial rate of decrease, + Clo / Initial rate of decrease, + Clo (per P450) / Initial rate of decrease, +DPI / Initial rate of decrease, +DPI (per P450) / Initial rate of decrease, -NADPH / Initial rate of decrease, -RLM: nitroxide 100 µM; for Initial rate of decrease, +DPI / Initial rate of decrease, +DPI (per P450): whole system + diphenyliodonium chloride 100 μM; for Initial rate of decrease, WS / Initial rate of decrease, WS (per P450): whole system: nitroxide 100 µM + RLM + NADPH, pH 7.4, 21 °C; for Initial rate of decrease, -NADPH: without NADPH; for Initial rate of decrease, -RLM: without RLM; for Decay in 30 min (conversion by P450): RLM + NADPH
[3] = cited from earlier work
[4] = system: rat liver microsomes (RLM); details: anaerobic; for EPR signal regenerated by reoxidation with potassium ferricyanide: ferricyanide 1 mM added to whole system after 30 min incubation (nitroxide 5: with simultaneous Clo 25 μM)
Method: Addition of NADPH to a final concentration of 1 mM started the reaction. Samples were mixed and transferred to glass microcapillary pipettes (50 μL, Hirschmann) that had been previously purged with N2.

[5] = reaction measured with ascorbate and glutathione mixtures
[6] = whole system + clotrimazole 25 μM, nitroxide 100 μM
[7] = whole system + diphenyliodonium chloride 100 μM, nitroxide 100 μM
[8] = whole system: nitroxide 100 μM + RLM + NADPH, pH 7.4, 21 °C

| Structure (SMILES) | Initial second-order reaction rate constant k0 for reduction by excess ascorbate [1] | Nitroxide recovered upon reoxidation with potassium ferricyanide [2] | Initial rate of decrease, + Clo [2] | Initial rate of decrease, +DPI [2] | Initial rate of decrease, WS [2] | Initial rate of decrease, WS (per P450) [2] | Initial rate of decrease, -NADPH [2] | Initial rate of decrease, -RLM [2] | Initial second-order reaction rate constant k0 for reduction by excess ascorbate [3, 5] | Initial second-order reaction rate constant k0 for reduction by excess ascorbate ([3]; ref 42) | EPR signal regenerated by reoxidation with potassium ferricyanide [4] | also measured |
| --- | --- | --- | --- | --- | --- | --- | --- | --- | --- | --- | --- | --- |
| CCC1(CC)CC(CN)C(CC)(CC)N1[O] (centres unmarked) [Compound 6, 3-(aminomethyl)-2,2,5,5-tetraethylpyrrolidineyloxyl] | – | – | – | – | – | – | – | – | – | – | – | Decay in liver homogenates (liver homogenates): significantly decayed |
| CCC1(CC)CC(CNC(=O)C[P+](c2ccccc2)(c2ccccc2)c2ccccc2)C(CC)(CC)N1[O].[Cl-] (centres unmarked) [Compound 7, 3-(2-triphenylphosphonio)acetamidomethyl-2,2,5,5-tetraethylpyrrolidine-1-oxyl chloride] | – | – | – | – | – | – | – | – | – | – | – | Decay in liver homogenates (liver homogenates): significantly decayed |
| CC1(C)CC(=O)CC(C)(C)N1[O] [Nitroxide 1, 2,2,6,6-tetramethyl-4-oxo(piperidine-1-yloxyl) radical, reference compound] | 6.9 ± 0.1 M⁻¹ s⁻¹ | 15% | 1.2 ± 0.3 nmol·min^−1·mg^−1 prot | 5.1 ± 0.3 nmol·min^−1·mg^−1 prot | 11.1 ± 0.8 nmol·min^−1·mg^−1 prot | 2.8 ± 0.2 nmol·min^−1·nmol^−1 P450 | 0.0 *** nmol·min^−1·mg^−1 prot | 0.0 *** nmol·min^−1·mg^−1 prot | 7.2 ± 0.8 ^a M^−1·s^−1 | 5.75 ± 0.04 M⁻¹ s⁻¹ | 37% | Initial rate of decrease, + Clo (per P450) [2]: 0.30 ± 0.09 nmol·min^−1·nmol^−1 P450; Initial rate of decrease, +DPI (per P450) [2]: 1.31 ± 0.07 nmol·min^−1·nmol^−1 P450; Initial second-order reaction rate constant k0 for reduction by excess ascorbate ([3]; ref 57): 6.9 ± 0.7 M⁻¹ s⁻¹; Initial rate of decrease, + Clo [4, 6]: 4.3 ± 0.4 nmol·min^−1·mg^−1·prot; Initial rate of decrease, + Clo (per P450) [4, 6]: 1.1 ± 0.2 nmol·min^−1·nmol^−1·P450; Initial rate of decrease, +DPI [4, 7]: 2.7 ± 0.3 nmol·min^−1·mg^−1·prot; Initial rate of decrease, +DPI (per P450) [4, 7]: 0.70 ± 0.08 nmol·min^−1·nmol^−1·P450; Initial rate of decrease, WS [4, 8]: 19.3 ± 0.9 nmol·min^−1·mg^−1·prot; Initial rate of decrease, WS (per P450) [4, 8]: 5.0 ± 0.5 nmol·min^−1·nmol^−1·P450; Initial rate of decrease, -NADPH ([4]; without NADPH, nitroxide 100 μM): 0.0 ** nmol·min^−1·mg^−1·prot; Initial rate of decrease, -RLM ([4]; without RLM, nitroxide 100 μM): 0.0 ** nmol·min^−1·mg^−1·prot |
| CC1(C)CC(C(=O)O)C(C)(C)N1[O] (centres unmarked) [Nitroxide 2, 3-carboxy-2,2,5,5-tetramethyl-1-pyrrolidinyloxyl] | 0.072 ± 0.003 M⁻¹ s⁻¹ | 42% | 0.94 ± 0.09 nmol·min^−1·mg^−1 prot | 2.1 ± 0.3 nmol·min^−1·mg^−1 prot | 4.8 ± 0.8 nmol·min^−1·mg^−1 prot | 1.2 ± 0.1 nmol·min^−1·nmol^−1 P450 | 0.0 ** nmol·min^−1·mg^−1 prot | 0.0 ** nmol·min^−1·mg^−1 prot | 0.060 ± 0.003 ^a M^−1·s^−1 | 0.079 ± 0.001 M⁻¹ s⁻¹ | – | Initial rate of decrease, + Clo (per P450) [2]: 0.24 ± 0.03 nmol·min^−1·nmol^−1 P450; Initial rate of decrease, +DPI (per P450) [2]: 0.54 ± 0.07 nmol·min^−1·nmol^−1 P450; Initial second-order reaction rate constant k0 for reduction by excess ascorbate ([3]; ref 70): 0.11 ± 0.01 M⁻¹ s⁻¹ |
| CCC1(CC)CC(C(=O)O)C(CC)(CC)N1[O] (centres unmarked) [Nitroxide 3, 3-carboxy-2,2,5,5-tetraethyl-1-pyrrolidinyloxyl] | 0.0011 ± 0.0002 M⁻¹ s⁻¹ | not the case | 0.0 ** nmol·min^−1·mg^−1 prot | 0.0 ** nmol·min^−1·mg^−1 prot | 1.8 ± 0.2 nmol·min^−1·mg^−1 prot | 0.46 ± 0.05 nmol·min^−1·nmol^−1 P450 | 0.0 ** nmol·min^−1·mg^−1 prot | 0.0 ** nmol·min^−1·mg^−1 prot | 0.0011 ± 0.0002 ^a M^−1·s^−1 | 0.002 ± 0.001 M⁻¹ s⁻¹ | hardly detectable | Decay in 30 min (conversion by P450) [2]: 5–10%; Initial second-order reaction rate constant k0 for reduction by excess ascorbate ([3]; ref 30): ≤0.001 M⁻¹ s⁻¹ |
| CCC1(CC)C=C(C(=O)O)C(CC)(CC)N1[O] [Nitroxide 4, 3-carboxy-2,2,5,5-tetrethyl-pyrrolinyloxyl] | 0.0077 ± 0.0009 M⁻¹ s⁻¹ | not the case | 0.0 ** nmol·min^−1·mg^−1 prot | 0.0 ** nmol·min^−1·mg^−1 prot | 0.84 ± 0.09 nmol·min^−1·mg^−1 prot | 0.22 ± 0.03 nmol·min^−1·nmol^−1 P450 | 0.0 ** nmol·min^−1·mg^−1 prot | 0.0 ** nmol·min^−1·mg^−1 prot | 0.00122 ± 0.00003 ^a M^−1·s^−1 | – | hardly detectable | Decay in 30 min (conversion by P450) [2]: 5–10% |
| CCC1(CC)c2ccc(C(=O)O)cc2C(CC)(CC)N1[O] [Nitroxide 5, 5-carboxy-1,1,3,3-tetraethyl-2-isoindolinyloxyl] | 0.02 ± 0.01 M⁻¹ s⁻¹ | not the case | 0.0 *** nmol·min^−1·mg^−1 prot | 0.0 *** nmol·min^−1·mg^−1 prot | 3.4 ± 0.2 nmol·min^−1·mg^−1 prot | 0.88 ± 0.05 nmol·min^−1·nmol^−1 P450 | 0.0 *** nmol·min^−1·mg^−1 prot | 0.0 *** nmol·min^−1·mg^−1 prot | – | – | 30% | New six-line paramagnetic species formed, share of the initial nitroxide ([2]; 300 μM nitroxide, RLM 30 μM P450, 2 mM NADPH, 21 °C, at 10 min (maximum)): 7% |
